# Results published in EP0359454B1, “CC-1065 analogs having two CPI subunits” (PHARMACIA & UPJOHN COMPANY, priority 1988, dated 1990).
# What was measured:
# [1] = test system: L-1210 Leukemia; assay: L-1210 leukemia in vivo, IV drug vs IP tumor, dosed on day 1; design: species or system Male BDF1 mice; conditions: IV drug vs IP tumor, dosed on day 1; for Best T/C: T/C = median survival treated/control x 100, each value at the dose (1-600 µg/kg); for cures: animals surviving 30 days are considered cured, at the dose (µg/kg)
# Source text: (§1) Table 3 presents data comparing [S-(R*,R*)]-6,6′-[carbonylbis(imino-1H-indole-5,2-dicarbonyl)]bis[8-chloromethyl)-3,6,7,8-tetrahydro-1-methyl-benzo[1,2-b:4,3-b′]dipyrrol-4-ol (Compound 1) with (7bR)-N-[2-[(4,5,8,8a-tetrahydro-7-methyl-4-oxocyclopropa-[C]pyrrolo[3,2-e]indol-2(1H)0yl)carbonyl]-1H-indol-5-yl]-2-benzofurancarboxamide (U-73,975) in the other murine systems where the compounds have been run jointly.
# The results set forth in Tables 1 and 4 were obtained using standard well known procedures (In Vivo Cancer, Models, NIH Publication No. 84-2635, 1984).
# T/C refers to median life span of treated mice divided by median life span of control mice times 100.
# [2] = test system: L1210 leukemia cells; assay: In vitro L1210 cell growth inhibition; assay type: cell-based, murine; conditions: Mus musculus, concentration of drug which inhibits cell growth 50%, read-out: ID50 (the source's name)
# Source text: as §1
Compound,Best T/C [1],cures [1],IC50 [2]
"Cc1c[nH]c2c(O)cc3c(c12)[C@H](CCl)CN3C(=O)c1cc2cc(NC(=O)c3ccc(C(=O)Nc4ccc5[nH]c(C(=O)N6C[C@@H](CCl)c7c6cc(O)c6[nH]cc(C)c76)cc5c4)o3)ccc2[nH]1 [Compound 6, [S-(R*,R*]-N,N′-bis[2-[[1-(chloromethyl)-1,6-dihydro-5-hydroxy-8-methylbenzo[1,2-b:4,3-b′]dipyrrol-3(2H)-yl]carbonyl]-1H-indol-5-yl]-2,5-furandicarboxamide]",178,1,0.012 ng/mL
"Cc1c[nH]c2c(O)cc3c(c12)[C@H](CCl)CN3C(=O)c1ccc2[nH]c(C(=O)Nc3ccc4[nH]c(C(=O)N5C[C@@H](CCl)c6c5cc(O)c5[nH]cc(C)c65)cc4c3)cc2c1 [Compound 13, [S-(R*,R*)]-5-[[1-(chloromethyl)-1,6-dihydro-5-hydroxy-8-methylbenzo[1,2-b:4,3-b′]dipyrrol-3(2H)-yl]-carbonyl)-N-[2-[[1-(chloromethyl)-1,6-dihydro-5-hydroxy-8-methylbenzo[1,2-b:4,3-b′]dipyrrol-3(2H)-yl]carbonyl)-1H-indol-5-yl]-1H-indole-2-carboxamide]",188,–,–
"Cc1c[nH]c2c(O)cc3c(c12)[C@H](CCl)CN3C(=O)c1cc2cc(NC(=O)c3ccc4[nH]c(C(=O)N5C[C@@H](CCl)c6c5cc(O)c5[nH]cc(C)c65)cc4c3)ccc2[nH]1 [Compound 12, [S-(R*,R*)]-2-[[1-(chloromethyl)-1,6-dihydro-5-hydroxy-8-methylbenzo[1,2-b:4,3-b′]dipyrrol-3(2H)-yl]carbonyl]-N-[3-[[1-(chloromethyl)-1,6-dihydro-5-hydroxy-8-methylbenzo[1,2-b:4,3-b′]dipyrrol-3(2H)-yl]carbonyl]-1H-indol-6-yl]-1H-indole-5-carboxamide]",181,–,–
"Cc1c[nH]c2c(O)cc3c(c12)[C@H](CCl)CN3C(=O)c1ccc2[nH]c(C(=O)N3C[C@@H](CCl)c4c3cc(O)c3[nH]cc(C)c43)cc2c1 [Compound 10, [S-(R*,R*)]-6,6′-(1H-indole-2,5-diyldicarbonyl)bis[8-(chloromethyl)-3,6,7,8-tetrahydro-1-methyl-benzo[1,2-b:4,3-b′]dipyrrol-4-ol]",213,1,–
"Cc1c[nH]c2c(O)cc3c(c12)[C@H](CCl)CN3C(=O)c1cc2cc(NC(=O)C(=O)Nc3ccc4[nH]c(C(=O)N5C[C@H](CCl)c6c5cc(O)c5[nH]cc(C)c65)cc4c3)ccc2[nH]1 [Compound 3, (R*,S*)-N,N′-bis[2-[[1-(chloromethyl)-1,6-dihydro-5-hydroxy-8-methylbenzo[1,2-b:4,3-b′]dipyrrol-3(2H)-yl]carbonyl]-1H-indol-5-yl]-ethanediamide]",106,–,0.009 ng/mL
"CC(=O)Oc1cc2c(c3c(C)c[nH]c13)[C@H](CCl)CN2C(=O)c1cc2cc(NC(=O)Nc3ccc4[nH]c(C(=O)N5C[C@@H](CCl)c6c5cc(OC(C)=O)c5[nH]cc(C)c65)cc4c3)ccc2[nH]1 [Compound 9, [S-(R*,R*)]-6,6′-[carbonylbis(imino-1H-indole-5,2-diylcarbonyl)bis[8-(chloromethyl)-3,6,7,8-tetrahydro-1-methyl-benzo[1,2-b:4,3-b′]dipyrrol-4-ol diacetate]",165,–,–
"Cc1c[nH]c2c1C13CC1CN(C(=O)c1cc4cc(NC(=O)Nc5ccc6[nH]c(C(=O)N7CC8CC89C7=CC(=O)c7[nH]cc(C)c79)cc6c5)ccc4[nH]1)C3=CC2=O (stereo not drawn) [Compound 2, [7bR-[2(7′bR*,8′aS*), 7bR*,8aS*]]-2,2′-[carbonylbis(imino-1H-indole-5,2-dicarbonyl)]bis[1,2,8,8a-tetrahydro-7-methyl-cyclopropa(c)pyrrolo[3,2-e]indol-4(5H)-one]",169,–,0.001 ng/mL
"Cc1c[nH]c2c(O)cc3c(c12)[C@H](CCl)CN3C(=O)c1cc2cc(NC(=O)c3ccc4[nH]c(C(=O)Nc5ccc6[nH]c(C(=O)N7C[C@@H](CCl)c8c7cc(O)c7[nH]cc(C)c87)cc6c5)cc4c3)ccc2[nH]1 [Compound 11, [S-(R*,R*)]-N,N′-bis[2-[[1-(chloromethyl)-1,6-dihydro-5-hydroxy-8-methylbenzo[1,2-b:4,3-b′]dipyrrol-3(2H)-yl]carbonyl]-1H-indol-5-yl]-1H-indole-2,5-dicarboxamide]",188,–,–
"Cc1c[nH]c2c(O)cc3c(c12)[C@H](CCl)CN3C(=O)c1ccc(C(=O)N2C[C@@H](CCl)c3c2cc(O)c2[nH]cc(C)c32)[nH]1 [Compound 4, [S-(R*,R*)]-6,6′-(1H-pyrrole-2,5-diyldicarbonyl)bis[8-(chloromethyl)-3,6,7,8-tertrahydro-1-methyl-benzo[1,2-b:4,3-b′-]dipyrrol-4-ol]",156,–,0.004 ng/mL
"Cc1c[nH]c2c(O)cc3c(c12)[C@H](CCl)CN3C(=O)c1cc2cc(NC(=O)c3ccc(C(=O)Nc4ccc5[nH]c(C(=O)N6C[C@@H](CCl)c7c6cc(O)c6[nH]cc(C)c76)cc5c4)[nH]3)ccc2[nH]1 [Compound 7, [S-(R*,R*)]-N,N′-bis[2[[1-(chloromethyl)-1,6-dihydro-5-hydroxy-8-methylbenzo[1,2-b:4,3-b′]dipyrrol-3(2H)-yl]carbonyl]-1H-indol-5-yl]-1H-pyrrole-2,5-dicarboxamide]",156,–,0.004 ng/mL
"Cc1c[nH]c2c(O)cc3c(c12)[C@H](CCl)CN3C(=O)c1cc2c3c(ccc2[nH]1)N(C(=O)N1CCc2c1ccc1[nH]c(C(=O)N4C[C@@H](CCl)c5c4cc(O)c4[nH]cc(C)c54)cc21)CC3 [Compound 16, [S-(R*,R*)]-6,6′-[carbonylbis[(7,8-dihydrobenzo[1,2-b:4,3-b′]dipyrrole-6,2(3H)-diyl)carbonyl]]bis[8-chloromethyl)-3,6,7,8-tetrahydro-1-methyl-benzo[1,2-b:4,3b′]dipyrrol-4-ol]",243,1/6,0.002 ng/mL
"Cc1c[nH]c2c(O)cc3c(c12)[C@H](CCl)CN3C(=O)c1ccc(C(=O)N2C[C@@H](CCl)c3c2cc(O)c2[nH]cc(C)c32)o1 [Compound 5, [S-(R*,R*)]-6,6′-(2,5-furandiyldicarbonyl)bis[8-(chloromethyl)-3,6,7,8-tertrahydro-1-methyl-benzo[1,2-b:4,3′b′]dipyrrol-4-ol]",156,–,0.01 ng/mL
"CCCCCCCCCC(=O)Oc1cc2c(c3c(C)c[nH]c13)[C@H](CCl)CN2C(=O)c1cc2cc(NC(=O)Nc3ccc4[nH]c(C(=O)N5C[C@@H](CCl)c6c5cc(OC(=O)CCCCCCCCC)c5[nH]cc(C)c65)cc4c3)ccc2[nH]1 [Compound 15, [S-(R*,R*)]-carbonylbis[imino-1H-indole-5,2-diylcarbonyl[1-(chloromethyl)-1,6-dihydro-8-methylbenzo[1,2-b:4,3-b′]dipyrrole-3,5(2H)-diyl]]ester, decanoic acid]",243,1,0.001 ng/mL
"Cc1c[nH]c2c(O)cc3c(c12)[C@H](CCl)CN3C(=O)c1cc2cc(NC(=O)CC(=O)Nc3ccc4[nH]c(C(=O)N5C[C@@H](CCl)c6c5cc(O)c5[nH]cc(C)c65)cc4c3)ccc2[nH]1 [Compound 8, [R-(R*,S*)]-N,N′-bis[2[[1-(chloromethyl)-1,6-dihydro-5-hydroxy-8-methylbenzo[1,2-b:4,3-b′]dipyrrol-3(2H)-yl]carbonyl]-1H-indol-5-yl]-propanediamide]",194,–,0.006 ng/mL
"Cc1c[nH]c2c(OC(=O)C(C)(C)C)cc3c(c12)[C@H](CCl)CN3C(=O)c1cc2cc(NC(=O)Nc3ccc4[nH]c(C(=O)N5C[C@@H](CCl)c6c5cc(OC(=O)C(C)(C)C)c5[nH]cc(C)c65)cc4c3)ccc2[nH]1 [Compound 14, [S-(R*,R*)]-carbonylbis[imino-1H-indole-5,2-diylcarbonyl[1-(chloromethyl)-1,6-dihydro-8-methylbenzo[1,2-b:4,3-b′]dipyrrole-3,5(2H)-diyl]]ester, 2,2-dimethylpropanoic acid]",156,–,–
